# Data published in US10155781B2, “Co-crystals, salts and solid forms of tenofovir alafenamide” (Gilead Sciences, Inc., priority 2015, dated 2018).
# Structures can show the parent of a compound that is named as a salt.
# Conditions: solid material, compared by XRPD
# Excerpt: Two XRPD systems were used for the characterization of the samples.
# (1) Bruker AXS C2 GADDS diffractometer uses Cu Kalpha radiation (40 kV, 40 mA), automated XYZ stage, laser video microscope for auto-sample positioning and a HiStar 2-dimensional area detector. X-ray optics consists of a single Göbel multilayer mirror coupled with a pinhole collimator of 0.3 mm. The beam divergence, i.e. the effective size of the X-ray beam on the sample, was approximately 4 mm. A θ-θ continuous scan mode was employed with a sample-detector distance of 20 cm which gives an effective 20 range of 3.2°-29.7°. Typically the sample was exposed to the X-ray beam for 120 seconds. The software used for data collection was GADDS for XP/2000 4.1.36 and the data was analyzed and presented using Diffrac Plus EVA v13.0.0.2 or v15.0.0.0.
# Samples run under ambient conditions were prepared as flat plate specimens using powder as received without grinding. Approximately 1-2 mg of the sample was lightly pressed on a glass slide to obtain a flat surface.
# (2) Bruker D8 diffractometer uses Cu Ka radiation (40 kV, 40 mA), θ-2θ goniometer, and divergence of V4 and receiving slits, a Ge monochromator and a Lynxeye detector. The software used for data collection was Diffrac Plus XRD Commander v2.6.1 and the data was analyzed and presented using Diffrac Plus EVA v13.0.0.2 or v15.0.0.0.
# Samples were run under ambient conditions as flat plate specimens using powder as received. The sample was gently packed into a cavity cut into polished, zero-background (510) silicon wafer. The sample was rotated in its own plane during analysis. The details of the data collection was: Angular range: 2 to 42° 2θ; Step size: 0.05° 2θ; Collection time: 0.5 s/step
# (3) PANanalytical XPERT-PRO diffractometer at ambient conditions under the following experimental settings: 45 KV, 40 mA, Kα1=1.5406 Å, scan range 2 to 40°, step size 0.0084 or 0.0167°, measurement time: 5 min.
row,Compound,XRPD pattern after storage at 40° C. 75% RH for 14 days (solid form stability)
1,CC(C)OC(=O)[C@H](C)N[P@](=O)(CO[C@H](C)Cn1cnc2c(N)ncnc21)Oc1ccccc1 [Tenofovir alafenamide methanesulfonate pattern 1],changed to another form
2,"CC(C)OC(=O)[C@H](C)N[P@](=O)(CO[C@H](C)Cn1cnc2c(N)ncnc21)Oc1ccccc1 [tenofovir alafenamide L-malate, Tenofovir Alafenamide L-Malate]",no change
3,"CC(C)OC(=O)[C@H](C)N[P@](=O)(CO[C@H](C)Cn1cnc2c(N)ncnc21)Oc1ccccc1 [tenofovir alafenamide benzenesulfonate, Tenofovir Alafenamide Benzenesulfonate]",no change
4,"CC(C)OC(=O)[C@H](C)N[P@](=O)(CO[C@H](C)Cn1cnc2c(N)ncnc21)Oc1ccccc1 [tenofovir alafenamide ethanesulfonate, Tenofovir Alafenamide Ethanesulfonate]",no XRPD change
5,"CC(C)OC(=O)[C@H](C)N[P@](=O)(CO[C@H](C)Cn1cnc2c(N)ncnc21)Oc1ccccc1 [tenofovir alafenamide mucate pattern 1, Tenofovir Alafenamide Mucate]",no change
6,"CC(C)OC(=O)[C@H](C)N[P@](=O)(CO[C@H](C)Cn1cnc2c(N)ncnc21)Oc1ccccc1 [tenofovir alafenamide mucate pattern 2, Tenofovir Alafenamide Mucate]",no change
7,"CC(C)OC(=O)[C@H](C)N[P@](=O)(CO[C@H](C)Cn1cnc2c(N)ncnc21)Oc1ccccc1 [tenofovir alafenamide oxalate, Tenofovir Alafenamide Oxalate]",no change in XRPD
8,"CC(C)OC(=O)[C@H](C)N[P@](=O)(CO[C@H](C)Cn1cnc2c(N)ncnc21)Oc1ccccc1 [tenofovir alafenamide saccharin, Tenofovir Alafenamide Saccharin]",same XRPD pattern was obtained

# Same assay, conditions: solid material, compared by XRPD, Hydrochloride
row,Compound,XRPD pattern after storage at 40° C. 75% RH for 14 days (solid form stability)
1,"CC(C)OC(=O)[C@H](C)N[P@](=O)(CO[C@H](C)Cn1cnc2c(N)ncnc21)Oc1ccccc1 [tenofovir alafenamide hydrochloride, Tenofovir Alafenamide Hydrochloride]",remained unchanged
